# Test results reported in ChEMBL document CHEMBL1201862, “PubChem BioAssay data set” (2004).
# Activity calls are given as the source filed them.
# How the values were obtained:
# [1] = target: FAD-linked sulfhydryl oxidase ALR (Homo sapiens, UniProt P55789); assay: inhibitors of human ALR sulfhydryl oxidase, dose response, biochemical, H2O2 detection, luminescence, cherry-pick (AID 493248)
# [2] = target: T1, Rac GTPase-activating protein 1 (Homo sapiens, UniProt Q9H0H5); assay: MgcRacGAP GTPase-activating activity inhibitors, confirmation, biochemical, ADP Hunter fluorescence, primary and confirmatory (AID 624330); format: functional
# T1 sequence (Q9H0H5 whole entry): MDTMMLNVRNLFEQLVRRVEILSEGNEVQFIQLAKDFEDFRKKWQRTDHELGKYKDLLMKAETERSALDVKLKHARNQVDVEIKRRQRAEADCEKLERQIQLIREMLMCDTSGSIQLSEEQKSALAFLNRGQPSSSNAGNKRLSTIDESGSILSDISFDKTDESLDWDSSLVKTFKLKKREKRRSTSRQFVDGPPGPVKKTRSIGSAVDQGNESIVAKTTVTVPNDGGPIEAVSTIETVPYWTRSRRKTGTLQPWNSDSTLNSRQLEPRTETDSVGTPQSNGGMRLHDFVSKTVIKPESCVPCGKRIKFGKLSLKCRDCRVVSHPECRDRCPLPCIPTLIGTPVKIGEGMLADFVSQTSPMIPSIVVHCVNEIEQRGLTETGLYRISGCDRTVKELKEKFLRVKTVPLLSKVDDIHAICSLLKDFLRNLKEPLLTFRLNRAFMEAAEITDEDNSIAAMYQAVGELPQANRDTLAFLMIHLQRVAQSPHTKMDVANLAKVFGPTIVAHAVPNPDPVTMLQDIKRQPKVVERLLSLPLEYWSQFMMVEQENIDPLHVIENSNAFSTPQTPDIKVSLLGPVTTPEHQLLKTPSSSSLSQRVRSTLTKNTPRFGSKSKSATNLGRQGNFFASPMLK
# [3] = target: T2, RNA-binding protein pos-1 (Caenorhabditis elegans, UniProt G5EF15); assay: inhibitors of POS-1/mex-3 RNA binding, dose response, biochemical, fluorescence polarization (AID 1964);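 also: purified POS-1 fused to maltose binding protein made in E. coli; potency of compounds blocking POS-1 binding to fluorescent RNA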
# T2 sequence (G5EF15 whole entry): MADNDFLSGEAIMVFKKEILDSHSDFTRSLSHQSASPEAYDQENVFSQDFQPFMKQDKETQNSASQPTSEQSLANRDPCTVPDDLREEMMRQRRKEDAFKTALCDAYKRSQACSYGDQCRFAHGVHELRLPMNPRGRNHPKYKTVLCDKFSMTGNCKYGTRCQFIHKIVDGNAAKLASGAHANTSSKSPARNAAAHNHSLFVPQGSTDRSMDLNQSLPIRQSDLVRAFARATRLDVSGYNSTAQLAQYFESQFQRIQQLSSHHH
# [4] = target: T3, Zinc finger protein mex-5 (Caenorhabditis elegans, UniProt Q9XUB2); assay: MEX-5/TCR-2 RNA interaction inhibitors, dose response, biochemical, C. elegans, fluorescence polarization (AID 1960)
# T3 sequence (Q9XUB2 whole entry): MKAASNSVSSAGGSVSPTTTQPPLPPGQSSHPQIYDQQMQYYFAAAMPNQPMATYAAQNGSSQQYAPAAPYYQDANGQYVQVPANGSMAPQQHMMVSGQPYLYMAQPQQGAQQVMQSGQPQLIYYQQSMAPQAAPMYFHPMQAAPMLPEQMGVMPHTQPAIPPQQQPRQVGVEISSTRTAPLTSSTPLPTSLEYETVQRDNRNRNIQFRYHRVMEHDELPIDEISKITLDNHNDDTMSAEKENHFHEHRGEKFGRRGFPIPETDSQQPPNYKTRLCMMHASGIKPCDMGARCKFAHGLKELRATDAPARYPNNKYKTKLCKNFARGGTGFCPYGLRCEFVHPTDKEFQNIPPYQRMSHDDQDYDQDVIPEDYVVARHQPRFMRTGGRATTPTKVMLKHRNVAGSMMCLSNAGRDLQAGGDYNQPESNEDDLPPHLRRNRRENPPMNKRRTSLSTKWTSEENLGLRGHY
# [5] = HEp-2 cell cytotoxicity, dose response, cytotoxicity control for RSV inhibitor project, HTS (AID 2410); format: functional; settings: human respiratory syncytial virus
# Cytochrome P450 2C19 = Cytochrome P450 2C19 (Homo sapiens, UniProt P33261); assay: Cytochrome panel assay with activity outcomes. Panel member name: p450-cyp2c19 Compounds with AC50 equal or less than 10 uM are considered active; format: functional
# Cytochrome P450 2C19, sequence (P33261 whole entry): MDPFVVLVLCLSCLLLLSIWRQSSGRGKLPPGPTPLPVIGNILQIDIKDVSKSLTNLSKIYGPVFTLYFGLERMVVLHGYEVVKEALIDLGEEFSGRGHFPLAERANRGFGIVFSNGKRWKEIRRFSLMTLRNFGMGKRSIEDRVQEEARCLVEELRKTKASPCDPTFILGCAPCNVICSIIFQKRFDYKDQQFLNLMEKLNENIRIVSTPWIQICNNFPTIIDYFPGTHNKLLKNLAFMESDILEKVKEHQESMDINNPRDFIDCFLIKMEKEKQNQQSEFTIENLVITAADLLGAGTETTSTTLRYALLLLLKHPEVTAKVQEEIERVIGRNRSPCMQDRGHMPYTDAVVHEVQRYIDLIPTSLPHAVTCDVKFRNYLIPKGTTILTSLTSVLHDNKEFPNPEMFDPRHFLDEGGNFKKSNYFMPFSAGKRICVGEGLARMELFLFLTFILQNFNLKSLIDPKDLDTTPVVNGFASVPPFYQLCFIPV
# [6] = cytotoxicity toward NIH3T3 fibroblasts, dose response, counter-screen, cell-based, ATP luminescence, mouse fibroblasts (AID 2010); format: functional;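 also: cells exposed to compound for about 90 hours before reading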
# [7] = inhibitors of intracellular T. cruzi replication, confirmation, NIH3T3 host cells, beta-gal luminescence (AID 2044); format: functional, cell-based;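 also: intracellular parasites grown in NIH/3T3 mouse fibroblasts as host cells; luminescent beta-galactosidase reporter signal from transgenic T. cruzi replicating inside host cells; inhibitors lower the luminescence signal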
# Cytochrome P450 1A2 = target: T4, Cytochrome P450 1A2 (Homo sapiens, UniProt P05177);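 also: PubChem cytochrome P450 panel assay, CYP1A2 panel member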
# T4 sequence (P05177 whole entry): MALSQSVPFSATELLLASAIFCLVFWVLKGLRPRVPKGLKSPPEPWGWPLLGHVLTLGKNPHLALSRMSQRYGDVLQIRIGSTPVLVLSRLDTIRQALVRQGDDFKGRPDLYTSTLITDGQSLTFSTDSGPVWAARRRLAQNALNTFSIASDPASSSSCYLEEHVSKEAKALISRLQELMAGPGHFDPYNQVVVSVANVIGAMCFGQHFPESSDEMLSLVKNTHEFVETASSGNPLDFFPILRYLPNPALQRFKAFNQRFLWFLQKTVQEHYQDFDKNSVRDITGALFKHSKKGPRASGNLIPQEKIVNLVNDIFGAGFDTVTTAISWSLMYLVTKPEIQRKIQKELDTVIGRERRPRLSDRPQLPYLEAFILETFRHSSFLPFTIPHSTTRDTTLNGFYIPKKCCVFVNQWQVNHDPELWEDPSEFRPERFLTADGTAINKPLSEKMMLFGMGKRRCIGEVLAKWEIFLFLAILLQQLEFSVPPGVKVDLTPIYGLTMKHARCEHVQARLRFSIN
# Cytochrome P450 2D6 = Cytochrome P450 2D6 (Homo sapiens, UniProt P10635);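 also: CYP2D6 member of a cytochrome P450 panel assay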
# Cytochrome P450 2D6, sequence (P10635 whole entry): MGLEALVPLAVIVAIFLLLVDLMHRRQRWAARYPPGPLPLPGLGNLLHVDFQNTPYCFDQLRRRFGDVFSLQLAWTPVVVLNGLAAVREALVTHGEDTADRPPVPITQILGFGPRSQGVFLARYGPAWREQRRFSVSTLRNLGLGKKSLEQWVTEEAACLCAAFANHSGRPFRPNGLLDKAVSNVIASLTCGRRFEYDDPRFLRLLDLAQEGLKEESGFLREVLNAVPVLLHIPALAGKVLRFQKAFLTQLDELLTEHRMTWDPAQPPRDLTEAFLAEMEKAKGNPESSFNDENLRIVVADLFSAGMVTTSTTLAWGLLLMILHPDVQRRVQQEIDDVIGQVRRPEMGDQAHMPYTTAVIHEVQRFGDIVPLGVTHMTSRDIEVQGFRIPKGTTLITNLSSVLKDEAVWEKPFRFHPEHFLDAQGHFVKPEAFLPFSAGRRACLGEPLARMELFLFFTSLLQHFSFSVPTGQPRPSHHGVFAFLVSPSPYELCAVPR
# Streptococcus = assay: Group A Streptococcus viability loss, dose response, counter-screen for streptokinase expression inhibitor project, luminescence, BacTiterGlo (AID 1915); format: functional, organism-based;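 also: potency for reduction of bacterial viability or growth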
# [8] = tested on: Streptococcus sp. 'group A'; assay: growth inhibition of control SK(-) GAS strain, dose response, counter-screen for streptokinase expression inhibitor project, luminescence, kanamycin, BacTiterGlo, confirmation (AID 1900); format: functional, organism-based
# FAD-linked sulfhydryl oxidase ALR, sequence (P55789 whole entry): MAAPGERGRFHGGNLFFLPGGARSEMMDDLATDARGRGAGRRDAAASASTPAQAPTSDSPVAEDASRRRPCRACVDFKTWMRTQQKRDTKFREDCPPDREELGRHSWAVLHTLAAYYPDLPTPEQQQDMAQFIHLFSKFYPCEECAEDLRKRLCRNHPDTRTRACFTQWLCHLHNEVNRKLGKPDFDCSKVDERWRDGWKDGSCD
smiles,measurement,setting,value
O=C(O)c1ccc(-n2c(/C=C/c3ccccc3)nc3ccccc3c2=O)cc1,AC50,[1],5.95 µM (active)
c1csc(CNc2ccc3c(c2)OCCO3)c1,IC50,[2],46.4 µM (active)
COc1cc(CN2CCC(C(=O)NC3CCCC3)CC2)cc(Br)c1O,IC50,[2],127 µM (active)
CN1CCC2(CC1)C(C#N)=C(N)NC(S)=C2C#N,EC50,[3],8.05 µM (active)
same,EC50,[4],8.53 µM (active)
COc1cc2[nH]c(C(=O)NN)c(N)c2cc1OC,EC50,[3],117 µM (active)
same,EC50,[4],18.5 µM (active)
COc1ccc(/C=C2\SC(=S)N(CCC(=O)NC3CCCC3)C2=O)cc1OC,EC50,[3],> 300 µM (not active)
same,EC50,[4],153 µM (active)
Clc1ccc(OCC#CCN2CCCCCC2)cc1,IC50,[2],184 µM (active)
CCCN(Cc1nnc(-c2ccccc2Cl)o1)C(=O)c1oc2ccccc2c1C,CC50,[5],19.6 µM (active)
O=C(Nc1cccc(F)c1)N1CC2(CCN(C(=O)c3ccncc3)CC2)C1,AC50,Cytochrome P450 2C19,inconclusive
CN(C)c1ccc(C(C(=O)NC2CCCC2)N(C(=O)c2ccco2)C2CC2)cc1 (stereo not given),AC50,[1],2.33 µM (active)
Cc1ccc2nc3c(cc(C(=O)NCC4CCCO4)c(=N)n3C3CCCC3)c(=O)n2c1 (stereo not given),EC50,[3],> 300 µM (not active)
same,EC50,[4],> 300 µM (not active)
CC(C)Cc1nnc(NC(=O)CCC(=O)N2CC(C)CC(C)C2)s1 (stereo not given),EC50,[3],> 300 µM (not active)
same,EC50,[4],> 300 µM (not active)
Cc1ccc(CCC(=O)Nc2ccc(N(C)C)cc2)o1,IC50,[2],45.1 µM (active)
CCCCCCCNC(=O)C1(CC2CC(c3ccc(Cl)cc3)=NO2)CCN(C(=O)C2(C)CC2)CC1 (stereo not given),CC50,[5],13.5 µM (active)
CC(C)CC(=O)C[C@H](O)C(Cl)(Cl)Cl,AC50,Cytochrome P450 2C19; read-out: AC50,7.94 µM (inconclusive)
Cc1ccc2cccc(S(=O)(=O)N3CCN(c4cccc(Cl)c4)CC3)c2n1,CC50,[5],46.9 µM (active)
Cc1ccc(C)c(N(C)C(=O)c2coc(=O)c3ccccc23)c1,EC50,[3],> 300 µM (not active)
same,EC50,[4],> 300 µM (not active)
C#CCCCO/N=C1/C[C@@H](O)[C@@H](O)[C@@H]2[C@@H]3C(=O)N(Cc4ccccc4)C(=O)[C@H]3CC[C@H]12,AC50,Cytochrome P450 2C19; read-out: AC50,5.01 µM (inconclusive)
Cc1ccccc1C(=O)Nc1cc(-c2cc(C(C)(C)C)oc2C)nn1C,CC50,[5],19.7 µM (active)
CC1(OC(=O)c2ccco2)C(=O)C=C2C=C(c3ccc(C#N)cc3)OC=C2C1=O (stereo not given),EC50,[3],52.2 µM (active)
same,EC50,[4],28.9 µM (active)
Cn1c(S)nnc1CSCc1ccc(Cl)cc1,AC50,[1],8.71 µM (active)
Nc1ccccc1Nc1cc(-c2ccccc2)nn1-c1cccc(Cl)c1,CC50,[5],26.3 µM (active)
same,EC50,[6],> 60 µM (not active)
same,EC50,[7],5.32 µM (active)
COc1ccc(-c2[nH]c(-c3ccc(C(=O)O)cc3)nc2-c2ccccc2)cc1,AC50,Cytochrome P450 2C19; read-out: AC50,39.8 µM (inconclusive)
same,AC50,[1],3.94 µM (active)
same,AC50,Cytochrome P450 1A2,28.2 µM (inconclusive)
O=C(O)CSc1ncnc2sc3c(c12)CCC3,AC50,Cytochrome P450 2C19; read-out: AC50,39.8 µM (inconclusive)
same,AC50,Cytochrome P450 1A2,28.2 µM (inconclusive)
NC(=O)C1CCN(C(=O)N2c3ccccc3Sc3ccccc32)CC1,AC50,[1],10.8 µM (active)
COc1ccc(N2CCN(c3ncccn3)CC2)cc1,IC50,[2],82.9 µM (active)
COc1ccc(-n2c(N)c(C(=O)Nc3c(C)n(C)n(-c4ccccc4)c3=O)c3nc4ccccc4nc32)cc1,CC50,[5],> 50 µM (active)
CCN1/C(=C2/SC(=S)NC2=O)Sc2ccccc21,AC50,[1],2.18 µM (active)
Cc1ccc(S(=O)(=O)c2c(N)n(NC(=O)c3ccccc3C)c3nc4ccccc4nc23)cc1,CC50,[5],22.9 µM (active)
COc1ccccc1CCC(=O)OCc1csc(CC(=O)Nc2ccccc2C)n1,EC50,[3],> 300 µM (not active)
same,EC50,[4],> 300 µM (inconclusive)
NC(=O)C1CCN(C(=O)CN2C(=O)c3ccccc3S2(=O)=O)CC1,AC50,Cytochrome P450 2C19; read-out: AC50,14.1 µM (inconclusive)
CC(C)(C)OC(=O)NCCCCCNC(=O)c1[nH]cnc1C(=O)N[C@@H](Cc1ccccc1)C(=O)OCc1ccccc1,CC50,[5],12.5 µM (active)
COc1ccc(CCNC(=O)c2ccc3c(=O)n(Cc4ccco4)c(=S)[nH]c3c2)cc1OC,AC50,Cytochrome P450 2C19; read-out: AC50,7.94 µM (inconclusive)
O=C(O)c1cc2ccccc2cc1Nc1ccccc1,AC50,[1],1.49 µM (active)
N#CC1=C(N)OC2=C(CC/C2=C\c2ccc(F)cc2)C1c1ccc(F)cc1 (stereo not given),CC50,[5],8.44 µM (active)
COc1cccc(-c2nc(NCCN3CCOCC3)c3ccccc3n2)c1,AC50,Cytochrome P450 2C19; read-out: AC50,20 µM (inconclusive)
CCN(CCNC(=O)C1CCCN(S(=O)(=O)c2c[nH]cn2)C1)c1ccccc1 (stereo not given),AC50,[1],0.394 µM (active)
COC(=O)c1cccc(-n2c(C)cc(C=O)c2C)c1C,EC50,[3],> 300 µM (not active)
same,EC50,[4],> 300 µM (not active)
Clc1ccccc1C(Nc1ncccn1)Nc1ncccn1,AC50,Cytochrome P450 2C19,inconclusive
CCc1c(C(=O)NCc2ccccc2Cl)[nH]c(C)c1C(C)=O,CC50,[5],> 50 µM (active)
CCO[C@H]1OC(C(=O)Nc2ccccc2)=C[C@@H](c2ccc(C(F)(F)F)cc2)[C@@H]1CCCO,CC50,[5],17.5 µM (active)
Cc1c(C(=O)NCCSCc2c(F)cccc2Cl)cnn1-c1ccc(Cl)cc1,CC50,[5],16.8 µM (active)
CCN(CC)c1ccc(NC(=O)CN(C)Cc2cccs2)cc1,IC50,[2],90.9 µM (active)
CN1CC(=O)N(CC(=O)Nc2ccc(SC(F)F)cc2)C1=O,AC50,[1],0.477 µM (active)
COc1cc(C(=O)NCCC(=O)NCc2ccc3c(c2)OCO3)cc(OC)c1OC,AC50,Cytochrome P450 2C19; read-out: AC50,28.2 µM (inconclusive)
same,AC50,Cytochrome P450 2D6,25.1 µM (inconclusive)
CCOc1cc(/C=N/NC(=O)CCCC(=O)NC2CCCCC2)ccc1O,IC50,[2],69.6 µM (active)
CCOc1cc(/C=N\NC(=O)c2c(C)nc3ccccn23)ccc1O,IC50,[2],76 µM (active)
Cc1cc(C)nc(N/N=C/c2c[nH]c3ccccc23)n1,IC50,[2],63.2 µM (active)
O=[N+]([O-])c1ccc(/C=N/Nc2nc(N3CCCCCC3)nc(N3CCCCCC3)n2)o1,CC50,[5],11.6 µM (active)
same,EC50,[6],> 60 µM (not active)
same,EC50,Streptococcus,2.35 µM (active)
same,EC50,[7],0.197 µM (active)
same,EC50,[8],0.504 µM (active)
O=C(O)CC/C(=N\Nc1ccccc1[N+](=O)[O-])c1cccs1,AC50,[1],2.73 µM (active)
CN1CCCC(CN2c3ccccc3Sc3ccccc32)C1 (stereo not given) [MEPAZINE ACETATE],AC50,[1],0.098 µM (active)
